Here are results for twelve compounds from PubChem BioAssay (NCI).

Molecules are shown by their SMILES. Several values for one entry are separate records, joined by “and”; a condition that tells them apart may be missing. Equal values may be shown once.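 Dose response: 5 concentrations. Exposure: 48 h. Format: 96-well plates. Endpoint: linear interpolation; highest concentration if not reached. At the GI50, growth is halved. TGI denotes the concentration required for complete inhibition of growth.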

Some test systems named below: DMS 273 small cell lung; K-562 leukemia; M14 melanoma; OVCAR-5 ovarian; SF-268 CNS; SK-MEL-2 melanoma; SK-OV-3 ovarian; SNB-78 CNS; A498 renal; HOP-92 NSCLC; HOP-62 NSCLC.
Experiment in all cases: NCI anticancer screen, dose series, 48 h

With `CC(=O)CC(=O)CCC(=O)O`, the TGI with DMS 273 small cell lung, in the assay with K-562 leukemia, in the assay with M14 melanoma, in the assay on OVCAR-5 ovarian, in the assay on SF-268 CNS and in the assay with SK-MEL-2 melanoma was above 100 µM throughout. The TGI in the assay with SK-OV-3 ovarian and with SNB-78 CNS was above 100 µM in each case.

As for `C#CCC1(C(=O)OCC)C(=O)c2ccccc2N(C)C1=O` (stereo unspecified), the TGI in the assay on A498 renal, in the assay with DMS 273 small cell lung, in the assay on HOP-92 NSCLC, with K-562 leukemia, with M14 melanoma and in the assay on SF-268 CNS was above 100 µM each time. Also, the TGI with SK-MEL-2 melanoma, with SK-OV-3 ovarian and with SNB-78 CNS was above 100 µM in each case.

Take `O=C1C=CC(=O)c2c(O)c(N3CCN(CCOCCO)CC3)c(Cl)c(O)c21`: the GI50 in the assay with A498 renal was 2.57 µM [middle of 4 runs]; in the assay with HOP-62 NSCLC, 2.07 µM and 0.983 µM and 2.64 µM; in the assay on K-562 leukemia, 0.265 µM and 0.0439 µM; in the assay on OVCAR-5 ovarian, 1.26 µM; in the assay with SK-MEL-2 melanoma, 2.3 µM; in the assay with SK-OV-3 ovarian, 4.59 µM [middle of 4 runs]. For the same compound, the TGI was 5.65 µM [middle of 4 runs] in the assay on A498 renal; 2.25 µM in the assay on DMS 273 small cell lung; 3.84 µM and 3.6 µM and 6.67 µM in the assay with HOP-62 NSCLC; 0.45 µM and 0.493 µM and 1.12 µM in the assay with HOP-92 NSCLC; above 100 µM with K-562 leukemia; 3.32 µM [middle of 4 runs] in the assay with OVCAR-5 ovarian. Further, the TGI in the assay on SK-MEL-2 melanoma is 4.51 µM and 1.11 µM; in the assay on SK-OV-3 ovarian it was 13.5 µM and 7.9 µM and 19.9 µM; in the assay on SNB-78 CNS, 1.35 µM.

On to `Cc1csc(NC(=NCCN2CCOCC2)Nc2nc(C)cs2)n1`, for which the TGI in the assay on A498 renal, with DMS 273 small cell lung, in the assay on HOP-62 NSCLC, in the assay with HOP-92 NSCLC, in the assay with K-562 leukemia and in the assay on OVCAR-5 ovarian was above 100 µM in each case. Moreover, the TGI in the assay on SF-268 CNS, in the assay with SK-MEL-2 melanoma, in the assay with SK-OV-3 ovarian and in the assay on SNB-78 CNS was above 100 µM throughout.

For `CC1(C2CCC3(C)OC3C2)CO1` (stereo unspecified), the TGI in the assay on DMS 273 small cell lung, with HOP-62 NSCLC, with HOP-92 NSCLC, in the assay on K-562 leukemia, in the assay with M14 melanoma and in the assay on OVCAR-5 ovarian was above 100 µM each time. The TGI with SF-268 CNS, in the assay on SK-MEL-2 melanoma, in the assay on SK-OV-3 ovarian and in the assay with SNB-78 CNS was above 100 µM throughout.

As to `O=C1c2ccccc2-c2[nH]c3cn[nH]c(=O)c3c21`, the TGI in the assay on A498 renal, with HOP-62 NSCLC, in the assay with HOP-92 NSCLC, in the assay with K-562 leukemia, with M14 melanoma and in the assay with OVCAR-5 ovarian was above 100 µM throughout. For the same compound, the TGI with SF-268 CNS, with SK-MEL-2 melanoma and with SK-OV-3 ovarian was above 100 µM throughout.

Consider `Cc1[nH]c(=O)[nH]c(=S)c1C(=O)Nc1cccc2cc3ccccc3cc12`, for which the TGI in the assay on A498 renal, in the assay with HOP-62 NSCLC, with HOP-92 NSCLC, in the assay with K-562 leukemia, in the assay with M14 melanoma and in the assay on OVCAR-5 ovarian was above 100 µM throughout. The TGI in the assay on SF-268 CNS, with SK-MEL-2 melanoma and with SK-OV-3 ovarian was above 100 µM each time.

Consider `CCOP(=O)(OCC)/C(C#N)=C/c1cccn1Cc1ccccc1`, for which the TGI in the assay with A498 renal is above 100 µM; in the assay on HOP-62 NSCLC it was above 100 µM; in the assay on HOP-92 NSCLC, 36.9 µM; with K-562 leukemia, above 100 µM; in the assay with M14 melanoma, above 100 µM; in the assay with OVCAR-5 ovarian, above 100 µM. Also, the figures for the TGI in the assay on SF-268 CNS, in the assay with SK-MEL-2 melanoma and in the assay with SK-OV-3 ovarian were above 100 µM, 47.8 µM and above 100 µM, respectively.

For the compound `CN(C)c1ccc(/C=C2\N=C(c3ccccc3)N(c3ccc4c(c3)Sc3cc(N5C(=O)/C(=C/c6ccc(N(C)C)cc6)N=C5c5ccccc5)ccc3N4)C2=O)cc1`, the TGI in the assay on A498 renal was determined as 31.8 µM; in the assay with HOP-62 NSCLC, 32.1 µM; with HOP-92 NSCLC, 35.1 µM; with K-562 leukemia it was 96.4 µM; in the assay with M14 melanoma it was 40.7 µM; with OVCAR-5 ovarian, 40.8 µM. The TGI was determined as 37.3 µM in the assay with SF-268 CNS, 38.3 µM in the assay with SK-MEL-2 melanoma and 26.7 µM in the assay on SK-OV-3 ovarian.

Consider `CC(=O)O[C@H]1CC[C@@]2(C)[C@H](CC[C@@H]3[C@@H]2CC[C@]2(C)[C@@H](c4ccc(=O)oc4)C[C@H]4O[C@]342)C1`, for which the TGI with A498 renal came to 4.96 µM; in the assay with DMS 273 small cell lung, 1.47 µM; in the assay with HOP-62 NSCLC, 2.06 µM; in the assay on HOP-92 NSCLC, 3.67 µM; with K-562 leukemia, 13 µM; in the assay on OVCAR-5 ovarian, 12.2 µM. For the same compound, the TGI was 1.29 µM in the assay on SF-268 CNS, 6.49 µM in the assay with SK-MEL-2 melanoma, 5.68 µM with SK-OV-3 ovarian and 4.8 µM in the assay with SNB-78 CNS.

For `CC(C)C1(O)C(=O)N(c2c(F)c(F)c(F)c(F)c2F)C(=S)N1CCSc1ccccc1` (stereo unspecified), the TGI was 29.8 µM in the assay with A498 renal; 34.6 µM in the assay with HOP-62 NSCLC; 22.2 µM in the assay with HOP-92 NSCLC; 26.7 µM with K-562 leukemia; 31.9 µM in the assay with M14 melanoma; 33 µM with OVCAR-5 ovarian. For the same compound, the figures for the TGI in the assay with SF-268 CNS, in the assay on SK-MEL-2 melanoma and in the assay on SK-OV-3 ovarian were 33.2 µM, 32.5 µM and 31 µM, respectively.

As for `CSc1ccc(/C=C2\N=C(c3ccccc3)N(/N=C/c3cc4cc(C)ccc4nc3Cl)C2=O)cc1`, the TGI is 43 µM in the assay on A498 renal; above 100 µM in the assay on HOP-62 NSCLC; 40.1 µM in the assay on HOP-92 NSCLC; 57.2 µM in the assay on K-562 leukemia; 38.4 µM in the assay with M14 melanoma; 74.9 µM with OVCAR-5 ovarian. The TGI in the assay on SF-268 CNS is 47.6 µM; in the assay on SK-MEL-2 melanoma it was 43.7 µM; with SK-OV-3 ovarian, 66.1 µM.
